Test results from patent US5459129A, “Condensed heterocyclic compounds, their production and use” (Takeda Chemical Industries, Ltd., priority 1990, dated 1995).

Assays:
[1] = target: T1, thymidylate acid synthase (TS) (Mus musculus, UniProt P07607); experiment: Determination of TS inhibiting action; format: biochemical; settings: roughly refined TS fraction from Meth A fibrosarcoma cells; [3H]dUMP, 1 hour at 37° C.; read-out: IC50 TS (concentration required for 50% inhibiting the TS activity)
T1 construct: endogenous in cells; host or cells: Meth A fibrosarcoma cells (sonicated; 100,000 x g supernatant)
Procedure: A roughly refined fraction of TS was prepared from Meth A fibrosarcoma cells serially cultivated in vitro. For culturing the cells, Eagle's minimum essential medium containing 10% (v/v) bovine fetal serum [MEM; Nissui Pharmaceutical Co. Ltd.] was used. The cells in logarithmic growth were recovered and washed twice with a physiological aqueous saline solution buffered with phosphate, which was then suspended in 0.2M sucrose, 0.01M Tris.HCl buffer solution (pH 7.5). The cells were destroyed by ultrasonic wave, and the suspension was subjected to centrifugation (100,000×g), then the supernatant was collected. Using bovine γ-groblin as the standard protein, the protein concentration was measured by using a protein.dye reagent (Bio-Rad), so that the protein concentration was adjusted to 10 mg/ml.
Enzymic reaction was conducted by partially modifying the method described in Biochemistry 5, 3546 (1966). The composition of the reaction medium was as follows; 0.058% (v/v) formaldehyde, 6.78 mM sodium fluoride, 0.2 mM 2-mercapto ethanol, 6.24 mg/ml bovine serum albumin, 80 μM 2'-deoxyuridine-5'-1 phosphoric acid (dUMP), 80 μM tetrahydrofolic acid, 2 mg/ml roughly refined TS fraction and 0.173M Tris.HCl buffer solution (pH 7.5). To the reaction medium were added the compounds of various concentrations obtained in Working Examples. 540 KBg of [^3 H] dUMP relative to 50 μl of the ultimate reaction medium was added, and the reaction was allowed to proceed for 1 hour at 37° C. in a 96-microwell plate. After completion of the reaction, 26.65% trichloroacetic acid and 3.33 mg/ml dUMP were added to suspend the reaction. To the reaction mixture was added 220 μl of 11.4 mg/ml activated charcoal. The whole mixture was subjected to centrifugation, and the radioactivity in 100 μl of the supernatant was measured by liquid scintillation counter to determine the concentration required for 50% inhibiting the TS activity (ICa50), as shown in Table 1.

[2] = target: T2, 5-aminoimidazole-4-carboxyamide ribonucleotide transformylase (AICARTF) (Homo sapiens, UniProt P31939); experiment: Measurement of AICARTF inhibiting action; format: biochemical; settings: AICARTF prepared from CCRF-CEM human lymphoblast leukemia cells; absorbance at 298 nm for 15 minutes; read-out: IC50 AICARTF (concentration required for 50% inhibiting the activity of AICARTF)
T2 construct: AICARTF was prepared from CCRF-CEM human lymphoblast leukemia cells; endogenous in cells; host or cells: CCRF-CEM human lymphoblast leukemia cells
Procedure: AICARTF was prepared from CCRF-CEM human lymphoblast leukemia cells by partially modifying the method described in Biochemistry 20 337 (1981), S. J. Benkovic, et al.
The enzymic reaction was conducted by adding the compounds of various concentrations in Working Examples to 0.95 ml of a solution consisting of a […] Tris.HCl buffer solution (pH 7.4), 5 μM 2-mercaptoethanol,25 μM potassium chloride, 0.1 μM (-)-10-formyl tetrahydrofolic acid and AICARTF, and, before starting the reaction, 0.05 ml of 1 mM 5-aminoimidazole-4-carboxylamide ribonucleotide.
The UV spectrum was measured at 298 nm for 15 minutes at the interval of 15 seconds to evaluate by the increase of absorbance due to the production of tetrahydrofolic acid to determine the concentration required for 50% inhibiting the activity of AICARTF (IC50).

[3] = tested on: Meth A fibrosarcoma (Meth A) cells; experiment: Inhibiting action against growth of Meth A fibrosarcoma cells in vitro; format: cell-based; settings: 72 hours culture, Coulter counter, read-out: IC50 (concentration required for decreasing the number of cells in the untreated control group by 50%)
Procedure: Meth A cells (2×10^4 /ml) prepared by a conventional method were inoculated into each well of the 12-microwell plate (2.0 ml in a well), and subjected to standing culture at 37° C. under 5% CO2. The compounds obtained in Working Examples dissolved at appropriate concentrations were diluted to 2-10 times stepwise with an MEM (Nissui Pharmaceutical Co., Ltd.) solution, to and the resulting dilutions were added to the culture medium. The medium was again subjected to standing culture at 37° C. under 5% CO2 for 72 hours. Then, the total number of cells at each concentration was measured by Coulter counter (Coulter Electronic, Florida in U.S.A.), and the average value of the cells in three wells was expressed by the number of cells per milliliter.
The concentrations of the respective compounds required for decreasing the number of cells in the untreated control group by 50% was made IC50 of the respective compounds.

T2 sequence (P31939 whole entry): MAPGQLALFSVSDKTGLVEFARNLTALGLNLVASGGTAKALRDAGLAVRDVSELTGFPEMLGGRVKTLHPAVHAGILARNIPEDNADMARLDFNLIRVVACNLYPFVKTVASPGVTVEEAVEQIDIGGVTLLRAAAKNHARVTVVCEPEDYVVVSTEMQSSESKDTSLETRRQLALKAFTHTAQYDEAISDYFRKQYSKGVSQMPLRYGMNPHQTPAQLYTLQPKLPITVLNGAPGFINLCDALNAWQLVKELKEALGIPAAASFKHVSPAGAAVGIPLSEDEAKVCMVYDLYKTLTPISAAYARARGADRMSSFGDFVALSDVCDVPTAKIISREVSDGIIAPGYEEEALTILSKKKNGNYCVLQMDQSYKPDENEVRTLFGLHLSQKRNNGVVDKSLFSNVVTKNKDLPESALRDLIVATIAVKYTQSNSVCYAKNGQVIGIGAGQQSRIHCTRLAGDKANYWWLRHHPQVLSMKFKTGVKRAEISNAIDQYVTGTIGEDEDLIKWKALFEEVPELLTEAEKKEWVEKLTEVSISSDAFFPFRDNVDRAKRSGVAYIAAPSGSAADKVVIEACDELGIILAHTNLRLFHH
T1 sequence (P07607 whole entry): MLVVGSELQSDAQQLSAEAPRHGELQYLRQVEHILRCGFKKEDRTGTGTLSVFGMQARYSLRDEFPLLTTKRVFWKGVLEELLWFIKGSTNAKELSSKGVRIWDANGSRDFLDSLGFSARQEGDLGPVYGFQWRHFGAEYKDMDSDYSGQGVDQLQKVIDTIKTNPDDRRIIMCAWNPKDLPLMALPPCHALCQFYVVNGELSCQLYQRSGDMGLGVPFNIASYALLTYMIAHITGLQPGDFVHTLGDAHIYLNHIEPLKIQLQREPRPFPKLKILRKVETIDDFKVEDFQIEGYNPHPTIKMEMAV

IC50 [1] [µM] | IC50 [2] [nM] | Compound | IC50 [3] [nM]
20 | 400 | Nc1nc(N)c2c(CCCc3ccc(C(=O)N[C@@H](CCC(=O)N[C@@H](CCC(=O)N[C@@H](CCC(=O)N[C@@H](CCC(=O)N[C@@H](CCC(=O)O)C(=O)O)C(=O)O)C(=O)O)C(=O)O)C(=O)O)cc3)c[nH]c2n1 [Ex. 9, [N-[4-[3-(2,4-diamino-7H-pyrrolo[2,3-d]pyrimidin-5-yl)propyl]benzoyl]-γ-L-glutamyl]-γ-L-glutamyl-γ-L-glutamyl-γ-L-glutamyl-L-glutamic acid] | 
36 | 9000 | Nc1nc(N)c2c(CCCc3ccc(C(=O)N[C@@H](CCC(=O)N[C@@H](CCC(=O)O)C(=O)O)C(=O)O)cc3)c[nH]c2n1 [Ex. 6, [N-[4-[3-(2,4-diamino-7H-pyrrolo[2,3-d]pyrimidin-5-yl)propyl]benzoyl]-γ-L-glutamyl]-L-glutamic acid] | 610
20 | 200 | Nc1nc(N)c2c(CCCc3ccc(C(=O)N[C@@H](CCC(=O)N[C@@H](CCC(=O)N[C@@H](CCC(=O)N[C@@H](CCC(=O)N[C@@H](CCC(=O)N[C@@H](CCC(=O)O)C(=O)O)C(=O)O)C(=O)O)C(=O)O)C(=O)O)C(=O)O)cc3)c[nH]c2n1 [Ex. 10, [N-[4-[3-(2,4-diamino-7H-pyrrolo[2,3-d]pyrimidin-5-yl)propyl]benzoyl]-γ-L-glutamyl]-γ-L-glutamyl-γ-L-glutamyl-γ-L-glutamyl-γ-L-glutamyl-L-glutamic acid] | 

Compound | IC50 [1] [µM] | IC50 [2] [nM] | IC50 [3] [nM]
Nc1nc(N)c2c(CCCc3ccc(C(=O)N[C@@H](CCC(=O)N[C@@H](CCC(=O)N[C@@H](CCC(=O)O)C(=O)O)C(=O)O)C(=O)O)cc3)c[nH]c2n1 [Ex. 8, [N-[4-[3-(2,4-diamino-7H-pyrrolo[2,3-d]pyrimidin-5-yl)propyl]benzoyl]-γ-L-glutamyl]-γ-L-glutamyl-γ-L-glutamic acid] | 21 | 600 | 
Nc1nc(N)c2c(CCCc3ccc(C(=O)N[C@@H](CCC(=O)N[C@@H](CCC(=O)N[C@@H](CCC(=O)O)C(=O)O)C(=O)O)C(=O)O)cc3)c[nH]c2n1 [Ex. 7, [N-[4-[3-(2,4-diamino-7H-pyrrolo[2,3-d]pyrimidin-5-yl)propyl]benzoyl]-γ-L-glutamyl]-γ-L-glutamyl-L-glutamic acid] | 40 | 6000 | 580
